Source: ChEMBL document CHEMBL6127107, “Oleanolic acid derivatives against drug-resistant bacteria and fungi by multi-targets to avoid drug resistance” (Eur J Med Chem, 2024)
Converted amounts (≈) assume the structure as drawn. The source made the active and inactive calls. The rule behind the calls is not given here.

Experiments:
Staphylococcus aureus [1] = assay: Antibacterial activity against methicillin-resistant Staphylococcus aureus infected in cyclophosphamide-injected Kunming mouse model of skin wound infection assessed as wound repair by measuring reduction in wound area at 4 mg/kg measured for 7 days by photographic analysis; type: functional, organism-based; details: time 7.0 day
Enterococcus faecalis = assay: Antimicrobial activity against vancomycin resistant Enterococcus faecalis ATCC 51299; type: functional
Staphylococcus aureus [2] = assay: Antibacterial activity against methicillin-resistant Staphylococcus aureus infected in cyclophosphamide-injected Kunming mouse model of skin wound infection assessed as reduction in bacterial load in skin at 4 mg/kg measured after 7 days; type: functional; details: time 7 day
[3] = Hemolytic activity against Mianyang red blood cells (unknown origin); type: toxicity, cell-based, RBC
Staphylococcus aureus [4] = assay: Drug resistance, ratio of MIC for methicillin-resistant Staphylococcus aureus measured after 20 days of continuous passage to MIC for methicillin-resistant Staphylococcus aureus measured after first exposure; type: functional
Staphylococcus aureus [5] = assay: Antibacterial activity against methicillin-resistant Staphylococcus aureus at sub-MIC measured after 20 days of continuous passage; type: functional, organism-based; details: time 20.0 day
Staphylococcus aureus [6] = assay: Antimicrobial activity against Staphylococcus aureus 29; type: functional
Staphylococcus aureus [7] = assay: Antibiofilm activity against methicillin-resistant Staphylococcus aureus assessed as reduction in number of live cells at 8 times of MIC (reference value: 7.79 log10CFU/ml); type: functional
Cell membrane [8] = assay: Disruption of cell membrane integrity in Candida albicans; type: subcellular
Staphylococcus aureus [9] = assay: Synergistic antibacterial activity against methicillin-resistant Staphylococcus aureus assessed as fractional inhibitory concentration index in presence of chloramphenicol; type: functional
Staphylococcus aureus [10] = assay: Antimicrobial activity against methicillin-resistant Staphylococcus aureus in presence of phosphatidylethanolamine; type: functional, organism-based
Staphylococcus aureus [11] = assay: Antibiofilm activity against methicillin-resistant Staphylococcus aureus assessed as inhibition of biofilm formation at 2 times of MIC by crystal violet staining based analysis relative to control; type: functional
DNA [12] = assay: Binding affinity to methicillin-resistant Staphylococcus aureus DNA assessed as inhibition of DNA migration at 75 microg/ml by electrophoretic analysis; type: nucleic-acid assay; details: dose 75.0 µg/ml
Staphylococcus aureus [13] = assay: Antimicrobial activity against methicillin-resistant Staphylococcus aureus in presence of cardiolipin; type: functional, organism-based
Staphylococcus aureus [14] = assay: Antimicrobial activity against Staphylococcus aureus 10; type: functional
Pseudomonas aeruginosa = assay: Antimicrobial activity against Pseudomonas aeruginosa; type: functional
Mitochondrial membrane = assay: Induction of mitochondrial membrane depolarization in methicillin-resistant Staphylococcus aureus assessed as increase in fluorescence intensity at 1 to 8 times of MIC by DiSC3(5) staining based analysis; type: cell membranes
Staphylococcus aureus [15] = assay: Synergistic antibacterial activity against methicillin-resistant Staphylococcus aureus assessed as fractional inhibitory concentration index in presence of fluconazole; type: functional
Staphylococcus aureus [16] = assay: Synergistic antibacterial activity against methicillin-resistant Staphylococcus aureus assessed as fractional inhibitory concentration index in presence of streptomycin; type: functional
Staphylococcus aureus [17] = assay: Synergistic antibacterial activity against methicillin-resistant Staphylococcus aureus assessed as fractional inhibitory concentration index in presence of azithromycin; type: functional
Staphylococcus aureus [18] = assay: Antibacterial activity against methicillin-resistant Staphylococcus aureus in presence of DNA; type: functional, organism-based
Cell membrane [19] = assay: Disruption of cell membrane integrity in methicillin-resistant Staphylococcus aureus assessed as cell rupture at 2 to 4 times of MIC by scanning electron microscopic analysis; type: subcellular
DNA [20] = assay: Binding affinity to […] methicillin-resistant Staphylococcus aureus DNA assessed as inhibition of DNA migration by electrophoretic analysis; type: nucleic-acid assay
Staphylococcus aureus [21] = assay: Antimicrobial activity against methicillin-resistant Staphylococcus aureus 003; type: functional
Cell membrane [22] = assay: Disruption of cell membrane integrity in methicillin-resistant Staphylococcus aureus assessed as nucleic acid leakage by absorbance based analysis; type: subcellular
Staphylococcus aureus [23] = assay: Bactericidal activity against methicillin-resistant Staphylococcus aureus assessed as eradication of bacterial growth at 4 times of MIC measured within 6 hrs relative to control; type: functional
Staphylococcus aureus [24] = assay: Synergistic antibacterial activity against methicillin-resistant Staphylococcus aureus assessed as fractional inhibitory concentration index in presence of ampicillin; type: functional
DNA [25] = assay: Binding affinity to methicillin-resistant Staphylococcus aureus DNA minor groove assessed as decrease in fluorescence by DAPI staining based analysis; type: nucleic-acid assay
Staphylococcus aureus [26] = assay: Synergistic antibacterial activity against methicillin-resistant Staphylococcus aureus assessed as fractional inhibitory concentration index in presence of cefoxitin; type: functional
Staphylococcus aureus [27] = assay: Antimicrobial activity against methicillin-resistant Staphylococcus aureus 011; type: functional
Staphylococcus aureus [28] = assay: Antibacterial activity against methicillin-resistant Staphylococcus aureus assessed as inhibition of bacterial growth at 1 times of MIC; type: functional, organism-based
Staphylococcus aureus [29] = assay: Selectivity ratio of MBEC for methicillin-resistant Staphylococcus aureus to MIC for methicillin resistant Staphylococcus aureus; type: functional
Cell membrane [30] = assay: Disruption of cell membrane integrity in methicillin-resistant Staphylococcus aureus assessed as increase in ROS level at 2 to 8 times of MIC incubated for 1 hrs; type: subcellular
HEK-293T = assay: Cytotoxicity against HEK293T cells at 64 microg/ml by MTT assay; type: toxicity, cell-based; details: human, dose 64 µg/ml
Cell membrane [31] = assay: Disruption of cell membrane integrity in methicillin-resistant Staphylococcus aureus assessed as increase in PI fluorescence at 2 to 8 times of MIC by PI staining based fluorescence analysis; type: subcellular
Staphylococcus aureus [32] = assay: Bactericidal activity against methicillin-resistant Staphylococcus aureus; type: functional, organism-based
Staphylococcus aureus [33] = assay: Antimicrobial activity against Staphylococcus aureus 31; type: functional
Staphylococcus aureus [34] = assay: Antibiofilm activity against methicillin-resistant Staphylococcus aureus assessed as decrease in biofilm biomass at 1 to 8 times of MIC by crystal violet staining based analysis; type: functional, organism-based
Escherichia coli = assay: Antimicrobial activity against Escherichia coli; type: functional
Cell membrane [35] = assay: Disruption of cell membrane integrity in methicillin-resistant Staphylococcus aureus assessed as cell deformation at 2 to 4 times of MIC by scanning electron microscopic analysis; type: subcellular
DNA [36] = assay: Binding affinity to methicillin-resistant Staphylococcus aureus DNA assessed as effect on helical structure by measuring change in positive and negative peaks at 10 to 40 microg/ml by CD spectra; type: nucleic-acid assay; details: dose 10-40 µg/ml
DNA [37] = assay: Binding affinity to methicillin-resistant Staphylococcus aureus DNA assessed as decrease in fluorescence by PI staining based analysis; type: nucleic-acid assay
Staphylococcus aureus [38] = assay: Antibiofilm activity against methicillin-resistant Staphylococcus aureus assessed as decrease in biofilm density at 1 to 8 times of MIC incubated for 24 hrs by fluorescence microscopic analysis; type: functional, organism-based
Staphylococcus aureus [39] = assay: Synergistic antibacterial activity against methicillin-resistant Staphylococcus aureus assessed as fractional inhibitory concentration index in presence of ceftriaxone; type: functional
Staphylococcus aureus [40] = assay: Synergistic antibacterial activity against methicillin-resistant Staphylococcus aureus assessed as fractional inhibitory concentration index in presence of lincomycin hydrochloride; type: functional
Staphylococcus aureus [41] = assay: Antimicrobial activity against methicillin-resistant Staphylococcus aureus in presence of peptidoglycan; type: functional, organism-based
Candida albicans = assay: Antimicrobial activity against fluconazole-resistant Candida albicans; type: functional
Staphylococcus aureus [42] = assay: Synergistic antibacterial activity against methicillin-resistant Staphylococcus aureus assessed as fractional inhibitory concentration index in presence of chlorpromazine; type: functional
Staphylococcus aureus [43] = assay: Synergistic antibacterial activity against methicillin-resistant Staphylococcus aureus assessed as fractional inhibitory concentration index in presence of vancomycin; type: functional
[44] = Selectivity index, ratio of HC50 for hemolytic activity against Mianyang red blood cells (unknown origin) to MIC for antimicrobial activity against methicillin resistant Staphylococcus aureus 003; type: toxicity, cell-based, RBC; details: read-out: Selectivity Index
DNA [45] = assay: Binding affinity to methicillin-resistant Staphylococcus aureus DNA assessed as change in DNA conformation by UV absorption based analysis; type: nucleic-acid assay

## CN[C@H](CC(C)C)C(=O)N[C@H]1C(=O)N[C@@H](CC(N)=O)C(=O)N[C@H]2C(=O)N[C@H]3C(=O)N[C@H](C(=O)N[C@H](C(=O)O)c4cc(O)cc(O)c4-c4cc3ccc4O)[C@H](O)c3ccc(c(Cl)c3)Oc3cc2cc(c3O[C@@H]2O[C@H](CO)[C@@H](O)[C@H](O)[C@H]2O[C@H]2C[C@](C)(N)[C@H](O)[C@H](C)O2)Oc2ccc(cc2Cl)[C@H]1O [VANCOMYCIN]
Staphylococcus aureus [1]
  Activity: Active
Enterococcus faecalis
  MIC: 2 µg/mL (≈ 1.38 µM)
Staphylococcus aureus [2]
  Activity: 0.9 log10CFU/mg
[3]
  HC50: > 256 µg/mL

## CCn1cc(C(=O)O)c(=O)c2cc(F)c(N3CCNCC3)cc21 [NORFLOXACIN]
Staphylococcus aureus [4]
  Ratio: 32

## CC1(C)CC[C@]2(C(=O)O)CC[C@]3(C)C(=CC[C@@H]4[C@@]5(C)CC[C@H](OCC(O)CCCNC(=N)N)C(C)(C)[C@@H]5CC[C@]43C)[C@@H]2C1 (stereo partly drawn)
Staphylococcus aureus [5]
  Activity: Active
Staphylococcus aureus [6]
  MIC: 4 µg/mL (≈ 6.67 µM)
Staphylococcus aureus [7]
  Activity: 2.7 log10CFU/ml
Cell membrane [8]
  Activity: Active
Staphylococcus aureus [9]
  fractional inhibitory concentration index (FICI): <=0.5
Staphylococcus aureus [10]
  Activity: inactive
Staphylococcus aureus [11]
  inhibition (INH): >80%
DNA [12]
  Activity: Active
Staphylococcus aureus [13]
  Activity: inactive
Staphylococcus aureus [14]
  MIC: 2 µg/mL (≈ 3.33 µM)
Pseudomonas aeruginosa
  MIC: > 64 µg/mL
Mitochondrial membrane
  Activity: Dose-Dependent Effect
Staphylococcus aureus [15]
  fractional inhibitory concentration index (FICI): <=0.5
Staphylococcus aureus [16]
  fractional inhibitory concentration index (FICI): 0.25
Enterococcus faecalis
  MIC: 2 µg/mL (≈ 3.33 µM)
Staphylococcus aureus [17]
  fractional inhibitory concentration index (FICI): <=0.5
Staphylococcus aureus [18]
  Activity: inactive
Cell membrane [19]
  Activity: Active
DNA [20]
  Activity: Active
Staphylococcus aureus [21]
  MIC: > 2 µg/mL
Cell membrane [22]
  Activity: Active
Staphylococcus aureus [23]
  Activity: 99.99%
Staphylococcus aureus [24]
  fractional inhibitory concentration index (FICI): <=0.5
[3]
  HC50: 779 µg/mL
DNA [25]
  Activity: inactive
Staphylococcus aureus [26]
  fractional inhibitory concentration index (FICI): <=0.5
Staphylococcus aureus [27]
  MIC: 2 µg/mL (≈ 3.33 µM)
Staphylococcus aureus [28]
  Activity: Active
Staphylococcus aureus [29]
  selectivity ratio: 16
Cell membrane [30]
  Activity: Active
HEK-293T
  Activity: Non-Toxic
Cell membrane [31]
  Activity: Active
Staphylococcus aureus [32]
  Activity: Active
Staphylococcus aureus [33]
  MIC: 2 µg/mL (≈ 3.33 µM)
Staphylococcus aureus [34]
  Activity: Active
Escherichia coli
  MIC: > 64 µg/mL
Cell membrane [35]
  Activity: Active
DNA [36]
  Activity: Active
DNA [37]
  Activity: Dose-Dependent Effect
Staphylococcus aureus [38]
  Activity: Dose-Dependent Effect
Staphylococcus aureus [39]
  fractional inhibitory concentration index (FICI): <=0.5
Staphylococcus aureus [40]
  fractional inhibitory concentration index (FICI): <=0.5
Staphylococcus aureus [41]
  Activity: Active
Candida albicans
  MIC: 2 µg/mL (≈ 3.33 µM)
Staphylococcus aureus [42]
  fractional inhibitory concentration index (FICI): <=0.5
Staphylococcus aureus [43]
  fractional inhibitory concentration index (FICI): <=0.5
[44]
  selectivity ratio: < 390
DNA [45]
  Activity: Active
